Data as given in US11000033B2, “Ketone or oxime compound, and herbicide” (NISSAN CHEMICAL CORPORATION, priority 2014, dated 2021).

Legend:
Type in all cases: in vivo
[1] = tested on: soybean; assay: Test Example 5: effect on crop by foliage application, plastic box (symbol d); conditions: 320 g/ha, 3 weeks after application
How it was run: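 Foliage-application test plants come from spot sowing in sterilized diluvial soil under a soil layer of about 1.5 cm, grown at 25° C. to 30° C. in a greenhouse.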

[2] = tested on: beet; assay: Test Example 4: effect on crop by soil treatment (symbol f); conditions: application herbicide amount 320 g/ha
How it was run: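 Plants are raised in a greenhouse (25° C. to 30° C.) from spot-sown seed, which sits under about 1.5 cm of sterilized diluvial soil in a box shared with weed species.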

[3] = tested on: transplanted rice plant; assay: Test Example 1: effect on crop, application before weed generation in submerged conditions (symbol a); conditions: application herbicide amount 320 g/ha
How it was run: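 Rice at 2.5 leaf stage transplanted into submerged soil (4 cm depth) sown with three weed species; herbicide applied before weed emergence.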

[4] = tested on: Monochoria vaginalis; assay: Test Example 1: herbicidal activity, application before weed generation in submerged conditions (symbol C); conditions: application herbicide amount 320 g/ha
How it was run: (§1)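 Weed control was rated three weeks after treatment on a 0–5 scale, from 5% or lower up to 90% or more. Pre-emergence water-surface application of diluted emulsion at a predetermined rate was made on the day of sowing, in flooded (4 cm water) pots containing rice seedlings, kept at 25–30 °C under glass.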

[5] = tested on: Scirpus juncoides; assay: Test Example 2: herbicidal activity, application during weed generation in submerged conditions (symbol B); conditions: Table 23; application herbicide amount 320 g/ha; grade 0-5 by criteria of Test Example 1
How it was run: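 Compound was applied as a water-diluted emulsion into the standing water of flooded pots (4 cm) once co-sown weeds reached one to two leaves. Greenhouse temperature was 25° C. to 30° C., soil was alluvial, and each species was rated visually after 3 weeks.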

[6] = tested on: Echinochloa oryzacola Vasing.; assay: Test Example 1: herbicidal activity, application before weed generation in submerged conditions (symbol A); conditions: application herbicide amount 320 g/ha
How it was run: as §1

[7] = tested on: Alopecurus myosuroides; assay: Test Example 5: herbicidal effect by foliage application, plastic box (symbol J); conditions: 320 g/ha, 3 weeks after application
How it was run: (§2)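 Post-emergence spray; diluvial soil (sterilized), ~1.5 cm seed cover; greenhouse 25–30° C; 14-day-old plants; water-diluted emulsion at predetermined dose; visual score at 3 wk post-treatment.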

[8] = tested on: Scirpus juncoides; assay: Test Example 1: herbicidal activity, application before weed generation in submerged conditions (symbol B); conditions: application herbicide amount 320 g/ha
How it was run: as §1

[9] = tested on: Alopecurus myosuroides; assay: Test Example 4: herbicidal effect by soil treatment (symbol J); conditions: application herbicide amount 320 g/ha
How it was run: (§3)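 Seeds were sown in sterilized diluvial soil, covered with about 1.5 cm of soil, and the soil surface was sprayed with a water-diluted emulsion of the compound at a predetermined rate. Plants grew in a greenhouse at 25° C. to 30° C.; effects were scored visually 3 weeks after application.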

[10] = tested on: Echinochloa crus-galli var. crus-galli; assay: Test Example 5: herbicidal effect by foliage application, plastic box (symbol H); conditions: 320 g/ha, 3 weeks after application
How it was run: as §2

[11] = tested on: Setaria viridis; assay: Test Example 4: herbicidal effect by soil treatment (symbol G); conditions: application herbicide amount 320 g/ha
How it was run: as §3

[12] = tested on: Chenopodium album; assay: Test Example 4: herbicidal effect by soil treatment (symbol O); conditions: application herbicide amount 320 g/ha
How it was run: as §3

CON=CC1CC(O)=C(c2c(C)cc(C)cc2C)C1=O (mixture of isomers) [3-001]
d: soybean, effect on crop grade [1]: 0 (Herbicidal ratio of 5% or lower (almost no effect))
f: beet, effect on crop grade [2]: 0 (Herbicidal ratio of 5% or lower (almost no effect))
Effect grade on crop, a: transplanted rice plant [3]: 0 (Herbicidal ratio of 5% or lower (almost no effect))
Herbicidal effect grade, C: Monochoria vaginalis [4]: 0 (Herbicidal ratio of 5% or lower (almost no effect))
Herbicidal effect grade, B: Scirpus juncoides [5]: 0 (Herbicidal ratio of 5% or lower (almost no effect))
Herbicidal effect grade, A: Echinochloa oryzacola Vasing. [6]: 0 (Herbicidal ratio of 5% or lower (almost no effect))
J: Alopecurus myosuroides, herbicidal effect grade [7]: 3 (Herbicidal ratio of 40% or higher and lower than 70%)
Herbicidal effect grade, B: Scirpus juncoides [8]: 0 (Herbicidal ratio of 5% or lower (almost no effect))
J: Alopecurus myosuroides, herbicidal effect grade [9]: 1 (Herbicidal ratio of 5% or higher and lower than 20%)
H: Echinochloa crus-galli var. crus-galli, herbicidal effect grade [10]: 4 (Herbicidal ratio of 70% or higher and lower than 90%)
G: Setaria viridis, herbicidal effect grade [11]: 0 (Herbicidal ratio of 5% or lower (almost no effect))
O: Chenopodium album, herbicidal effect grade [12]: 0 (Herbicidal ratio of 5% or lower (almost no effect))

CON=C(C)C1CC(O)=C(c2c(C)cc(C)cc2C)C1=O (mixture of isomers) [3-002]
d: soybean, effect on crop grade [1]: 0 (Herbicidal ratio of 5% or lower (almost no effect))
f: beet, effect on crop grade [2]: 0 (Herbicidal ratio of 5% or lower (almost no effect))
Effect grade on crop, a: transplanted rice plant [3]: 0 (Herbicidal ratio of 5% or lower (almost no effect))
Herbicidal effect grade, C: Monochoria vaginalis [4]: 0 (Herbicidal ratio of 5% or lower (almost no effect))
Herbicidal effect grade, B: Scirpus juncoides [5]: 0 (Herbicidal ratio of 5% or lower (almost no effect))
Herbicidal effect grade, A: Echinochloa oryzacola Vasing. [6]: 0 (Herbicidal ratio of 5% or lower (almost no effect))
J: Alopecurus myosuroides, herbicidal effect grade [7]: 0 (Herbicidal ratio of 5% or lower (almost no effect))
Herbicidal effect grade, B: Scirpus juncoides [8]: 0 (Herbicidal ratio of 5% or lower (almost no effect))
J: Alopecurus myosuroides, herbicidal effect grade [9]: 0 (Herbicidal ratio of 5% or lower (almost no effect))
H: Echinochloa crus-galli var. crus-galli, herbicidal effect grade [10]: 1 (Herbicidal ratio of 5% or higher and lower than 20%)
G: Setaria viridis, herbicidal effect grade [11]: 0 (Herbicidal ratio of 5% or lower (almost no effect))
O: Chenopodium album, herbicidal effect grade [12]: 0 (Herbicidal ratio of 5% or lower (almost no effect))

CCc1cc(-n2cc(Cl)cn2)cc(C)c1C1=C(O)CC(CC(C)=NOC)C1=O (mixture of isomers) [6-005]
d: soybean, effect on crop grade [1]: 4 (Herbicidal ratio of 70% or higher and lower than 90%)
f: beet, effect on crop grade [2]: 0 (Herbicidal ratio of 5% or lower (almost no effect))
Effect grade on crop, a: transplanted rice plant [3]: 5 (Herbicidal ratio of 90% or more (almost completely withered))
Herbicidal effect grade, C: Monochoria vaginalis [4]: 3 (Herbicidal ratio of 40% or higher and lower than 70%)
Herbicidal effect grade, B: Scirpus juncoides [5]: 2 (Herbicidal ratio of 20% or higher and lower than 40%)
Herbicidal effect grade, A: Echinochloa oryzacola Vasing. [6]: 5 (Herbicidal ratio of 90% or more (almost completely withered))
J: Alopecurus myosuroides, herbicidal effect grade [7]: 5 (Herbicidal ratio of 90% or more (almost completely withered))
Herbicidal effect grade, B: Scirpus juncoides [8]: 5 (Herbicidal ratio of 90% or more (almost completely withered))
J: Alopecurus myosuroides, herbicidal effect grade [9]: 5 (Herbicidal ratio of 90% or more (almost completely withered))
H: Echinochloa crus-galli var. crus-galli, herbicidal effect grade [10]: 5 (Herbicidal ratio of 90% or more (almost completely withered))
G: Setaria viridis, herbicidal effect grade [11]: 5 (Herbicidal ratio of 90% or more (almost completely withered))
O: Chenopodium album, herbicidal effect grade [12]: 0 (Herbicidal ratio of 5% or lower (almost no effect))

CC#Cc1cc(C)c(C2=C(O)CC(CC(C)=NOC)C2=O)c(CC)c1 (mixture of isomers) [6-006]
d: soybean, effect on crop grade [1]: 0 (Herbicidal ratio of 5% or lower (almost no effect))
f: beet, effect on crop grade [2]: 0 (Herbicidal ratio of 5% or lower (almost no effect))
Effect grade on crop, a: transplanted rice plant [3]: 5 (Herbicidal ratio of 90% or more (almost completely withered))
Herbicidal effect grade, C: Monochoria vaginalis [4]: 1 (Herbicidal ratio of 5% or higher and lower than 20%)
Herbicidal effect grade, B: Scirpus juncoides [5]: 5 (Herbicidal ratio of 90% or more (almost completely withered))
Herbicidal effect grade, A: Echinochloa oryzacola Vasing. [6]: 5 (Herbicidal ratio of 90% or more (almost completely withered))
J: Alopecurus myosuroides, herbicidal effect grade [7]: 5 (Herbicidal ratio of 90% or more (almost completely withered))
Herbicidal effect grade, B: Scirpus juncoides [8]: 5 (Herbicidal ratio of 90% or more (almost completely withered))
J: Alopecurus myosuroides, herbicidal effect grade [9]: 5 (Herbicidal ratio of 90% or more (almost completely withered))
H: Echinochloa crus-galli var. crus-galli, herbicidal effect grade [10]: 4 (Herbicidal ratio of 70% or higher and lower than 90%)
G: Setaria viridis, herbicidal effect grade [11]: 5 (Herbicidal ratio of 90% or more (almost completely withered))
O: Chenopodium album, herbicidal effect grade [12]: 0 (Herbicidal ratio of 5% or lower (almost no effect))

CON=C(C)CC1CC(O)=C(c2c(C)cc(-c3ccc(C(F)(F)F)cc3)cc2C)C1=O (mixture of isomers) [6-016]
d: soybean, effect on crop grade [1]: 0 (Herbicidal ratio of 5% or lower (almost no effect))
f: beet, effect on crop grade [2]: 0 (Herbicidal ratio of 5% or lower (almost no effect))
Effect grade on crop, a: transplanted rice plant [3]: 4 (Herbicidal ratio of 70% or higher and lower than 90%)
Herbicidal effect grade, C: Monochoria vaginalis [4]: 0 (Herbicidal ratio of 5% or lower (almost no effect))
Herbicidal effect grade, B: Scirpus juncoides [5]: 0 (Herbicidal ratio of 5% or lower (almost no effect))
Herbicidal effect grade, A: Echinochloa oryzacola Vasing. [6]: 5 (Herbicidal ratio of 90% or more (almost completely withered))
J: Alopecurus myosuroides, herbicidal effect grade [7]: 1 (Herbicidal ratio of 5% or higher and lower than 20%)
Herbicidal effect grade, B: Scirpus juncoides [8]: 0 (Herbicidal ratio of 5% or lower (almost no effect))
J: Alopecurus myosuroides, herbicidal effect grade [9]: 0 (Herbicidal ratio of 5% or lower (almost no effect))
H: Echinochloa crus-galli var. crus-galli, herbicidal effect grade [10]: 5 (Herbicidal ratio of 90% or more (almost completely withered))
G: Setaria viridis, herbicidal effect grade [11]: 5 (Herbicidal ratio of 90% or more (almost completely withered))
O: Chenopodium album, herbicidal effect grade [12]: 0 (Herbicidal ratio of 5% or lower (almost no effect))

CCOC(=O)C(C(=O)CC1CC1)C1CC(O)=C(c2c(C)cc(C)cc2C)C1=O (stereo not shown) [2-025]
d: soybean, effect on crop grade [1]: 0 (Herbicidal ratio of 5% or lower (almost no effect))
f: beet, effect on crop grade [2]: 0 (Herbicidal ratio of 5% or lower (almost no effect))
Effect grade on crop, a: transplanted rice plant [3]: 2 (Herbicidal ratio of 20% or higher and lower than 40%)
Herbicidal effect grade, C: Monochoria vaginalis [4]: 0 (Herbicidal ratio of 5% or lower (almost no effect))
Herbicidal effect grade, A: Echinochloa oryzacola Vasing. [6]: 3 (Herbicidal ratio of 40% or higher and lower than 70%)
J: Alopecurus myosuroides, herbicidal effect grade [7]: 4 (Herbicidal ratio of 70% or higher and lower than 90%)
Herbicidal effect grade, B: Scirpus juncoides [8]: 0 (Herbicidal ratio of 5% or lower (almost no effect))
J: Alopecurus myosuroides, herbicidal effect grade [9]: 0 (Herbicidal ratio of 5% or lower (almost no effect))
H: Echinochloa crus-galli var. crus-galli, herbicidal effect grade [10]: 4 (Herbicidal ratio of 70% or higher and lower than 90%)
G: Setaria viridis, herbicidal effect grade [11]: 5 (Herbicidal ratio of 90% or more (almost completely withered))
O: Chenopodium album, herbicidal effect grade [12]: 0 (Herbicidal ratio of 5% or lower (almost no effect))

CON=C(C)CC1CC(O)=C(c2c(C)cc(C(C)=O)cc2C)C1=O (stereo not shown) [6-026]
d: soybean, effect on crop grade [1]: 0 (Herbicidal ratio of 5% or lower (almost no effect))
f: beet, effect on crop grade [2]: 0 (Herbicidal ratio of 5% or lower (almost no effect))
Effect grade on crop, a: transplanted rice plant [3]: 3 (Herbicidal ratio of 40% or higher and lower than 70%)
Herbicidal effect grade, C: Monochoria vaginalis [4]: 0 (Herbicidal ratio of 5% or lower (almost no effect))
Herbicidal effect grade, A: Echinochloa oryzacola Vasing. [6]: 1 (Herbicidal ratio of 5% or higher and lower than 20%)
J: Alopecurus myosuroides, herbicidal effect grade [7]: 5 (Herbicidal ratio of 90% or more (almost completely withered))
Herbicidal effect grade, B: Scirpus juncoides [8]: 0 (Herbicidal ratio of 5% or lower (almost no effect))
J: Alopecurus myosuroides, herbicidal effect grade [9]: 1 (Herbicidal ratio of 5% or higher and lower than 20%)
H: Echinochloa crus-galli var. crus-galli, herbicidal effect grade [10]: 5 (Herbicidal ratio of 90% or more (almost completely withered))
G: Setaria viridis, herbicidal effect grade [11]: 4 (Herbicidal ratio of 70% or higher and lower than 90%)
O: Chenopodium album, herbicidal effect grade [12]: 0 (Herbicidal ratio of 5% or lower (almost no effect))
